This note sets out measurements from patent US11464448B2, “Innate metabolic imaging of cellular systems” (Memorial Sloan Kettering Cancer Center, priority 2016, dated 2022).

Assay [1] has as its system high-iron(III)+ CD68+ TAMs in MycCaP tumors. In words: Whole slice histology (Prussian Blue iron(III), CD68) of TAM infiltration in MycCaP tumors. It is filed as in vivo, FVB/N mice. From the text: In order to further quantify these low- and high-[iron(III)] sub-populations, quantitative histology was used. […] In low-iron(III)^+ regions, prostate cancer cells were found sparsely studded with ferritin particles less than 1 μm^2 (at an approximate density of 1000 ferritin particles/field; no CD68^+ macrophages were observed (FIG. 2F, 2G n=18 fields, n=6 mice). In high-iron(III)^+ regions CD68^+ TAMs were found bearing dense hemosiderin deposits in groups of approximately 24 macrophages/TAM cluster (FIG. 2F, 2G, n=18 fields, n=6 mice). With these histological findings, it was possible to estimate the per-pixel TAM number in high-[iron(III)] MRI clusters at approximately 6 macrophages/pixel. To quantify the extent of infiltration of these TAM clusters, an image-processing algorithm was developed in-house with Matlab and ImageJ. […] Immune-competent, syngeneic murine FVB/N and C57BL/6 hosts underwent orthotopic prostatic injections of 5×10^4 cells (MycCaP and TRAMP-C2, respectively), and thereafter received either sham (H2O) or DFP (150 mg/kg, 5 days/week) by oral gavage until average primary tumor burden exceeded 1 cm^3 (determined by MM) in the treated group. […]

For assay [2], the system named is orthotopic MycCaP prostate tumors. In words: Tumor volume by MRI in orthotopic MycCaP prostate model during iron chelation therapy. It is filed as in vivo, FVB/N mice. The conditions noted are these: 150 mg/kg, 5 days/week oral gavage; two weeks of gavage beginning one-week post-implantation at 100 mm^3; vs sham (H2O); n=10, p<0.05. From the text:
(§1) Chelation of iron(III) has been proposed as a cancer treatment that causes reductions in tumor growth, presumably by reducing bioavailability of iron(III) to the cancer cells. However, no studies have addressed the possibility that chelation modulates TAM infiltration contributing to these anti-tumor effects. In order to investigate anti-tumor effects of iron chelation, FeMRI is used, as described herein, to monitor tumor growth in two mouse models. The faster growing MycCaP model and the slower growing TRAMP-C2 model were studied and contrasted to evaluate the effect of dose duration. Immune-competent, syngeneic murine FVB/N and C57BL/6 hosts underwent orthotopic prostatic injections of 5×10^4 cells (MycCaP and TRAMP-C2, respectively), and thereafter received either sham (H2O) or DFP (150 mg/kg, 5 days/week) by oral gavage until average primary tumor burden exceeded 1 cm^3 (determined by MM) in the treated group. […] At long dose durations (12 weeks) there was no growth of TRAMP-C2 orthotopic tumors implanted in syngeneic hosts (FIG. 3A, n=10, *p<0.001). […] (FIG. 3D, n=10, *p<0.05). […] Further, the ability to monitor TAM dynamics serially using FeMRI represents a technique that has translational use, bypassing the necessity for using invasive biopsy to obtain similar measures of stromal response to therapy.

The test system of assay [3] is orthotopic TRAMP-C2 prostate tumors. The experiment in a line: Tumor volume by MRI in orthotopic TRAMP-C2 prostate model during iron chelation therapy. It is filed as in vivo, C57BL/6 mice. The following applies: 150 mg/kg, 5 days/week oral gavage; long dose duration (12 weeks); syngeneic hosts; n=10, p<0.001.
Source text: as §1

Assay [4] has as its system high-[iron(III)] TAM clusters in MycCaP tumors. The experiment in a line: FeMRI measurement of high-[iron(III)] TAM clusters in MycCaP tumors. It is filed as in vivo, FVB/N mice. The method, then: TAM clusters was measured by FeMRI at each week of treatment as a function of percent infiltration in MycCaP tumors. […] These low-[iron(III)] and high-[iron(III)] populations were mapped by thresholding the tumor Fe[(III)] distribution in these ranges on the FeMRI. The low-[iron(III)] map consisted of dense pixel clusters distributed throughout the tumor, while the high-[iron(III)] map contained sparse clusters with average cluster size of approximately 4 MRI pixel^2≈0.05 mm^2 primarily at the outer tumor margins (n=10 mice). To quantify the extent of infiltration of these TAM clusters, an image-processing algorithm was developed in-house with Matlab and ImageJ. This tool is based on concentric rake sampling that identifies […] CD68^+ or high-[iron(III)] colonies and maps them as a function of % infiltration into the tumor (inset FIG. 2J, […] outer edge, 100% tumor center) for arbitrarily sized histological (FIG. 2J, left […]) regions of interest. […] Immune-competent, syngeneic murine FVB/N and C57BL/6 hosts underwent orthotopic prostatic injections of 5×10^4 cells (MycCaP and TRAMP-C2, respectively), and thereafter received either sham (H2O) or DFP (150 mg/kg, 5 days/week) by oral gavage until average primary tumor burden exceeded 1 cm^3 (determined by MM) in the treated group. […]

On to `Cc1c(O)c(=O)ccn1C` [DFP, deferiprone], for which the “histological TAM infiltration profile” value in assay [1] (MycCaP tumor at week 3 of treatment, vs untreated group, p<0.05) is “less TAMs than the untreated group”. In assay [1] (MycCaP tumors, 150 mg/kg oral gavage, data not shown), the “high-iron(III)+ and CD68+ positive cells (histological analysis)” value is on record as “reduced”. Moreover, in assay [2], the “smaller tumor volumes by the endpoint of the study” value is given as 40%. In addition, the tumor growth result in assay [3] was “no growth”. The “rates of TAM infiltration” value in assay [4] (derived from changes of FeMRI infiltration profiles over time, n=10, p<0.05) is “reduced”. In addition, the “FeMRI measurements of TAMs” value in assay [4] (over the full course of treatment) is listed as “showed reductions”.
